In EPA's ToxValDB 9.5 (doi:10.2903/j.efsa.2009.186r):
Values after ≈ are worked out from the molar mass of the structure shown.

Columns and labels:
Apis mellifera = conditions: acute; duration: 48 hours; oral; unspecified; mortality
Colinus virginianus = conditions: for LD50: acute, oral, mortality
Tagia sp. = conditions: acute; duration: 14 days; mortality
Anas platyrhynchos = conditions: acute; oral; unspecified; mortality
Mus musculus = conditions: acute; oral; mortality
Canidae = conditions: chronic; duration: 1 years; oral; Dog Other; clinical signs
Daphnia magna = conditions: chronic/long-term; duration: 21 days; reproduction
Bibionidae = conditions: chronic/long-term; duration: 28 days
Aphidius rhopalosiphi = conditions: not reported; mortality

SMILES: Cc1c(COC(=O)[C@@H]2[C@H](/C=C(\Cl)C(F)(F)F)C2(C)C)cccc1-c1ccccc1 [Bifenthrin]
- LD50 (Apis mellifera): 0.1 µg/piece
- LD50 (Colinus virginianus; diet): 569 mg/kg-day
- LD50 (Colinus virginianus): 1800 mg/kg
- NOEC (Colinus virginianus; reproduction developmental): 75 mg/kg-day
- LC50 (Tagia sp.): > 16 mg/kg
- LD50 (Anas platyrhynchos): > 2150 mg/kg
- LD50 (Mus musculus): 42.5 mg/kg
- NOAEL (Canidae): 1.5 mg/kg-day
- NOAEL (Rattus norvegicus; developmental, development): > 2 mg/kg-day
- NOAEL (Rattus norvegicus; reproduction developmental, reproduction): 3 mg/kg-day
- NOAEL (Rattus norvegicus; subchronic, duration: 90 days, oral, neurology): 2.9 mg/kg-day
- NOEC (Daphnia magna): 9.5e-07 mg/L
- NOEC (Bibionidae): 0.00032 mg/L
- LEL (Aphidius rhopalosiphi): 60 g/ha
- LC50 (Oncorhynchus mykiss; acute, duration: 96 hours, mortality): 0.1 ng/mL (≈ 0.236 nM)
- NOEC (Oncorhynchus mykiss; chronic/long-term, duration: 30 days, other): 1.2e-05 mg/L
